PubChem BioAssay (NCI)
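These data come from cells grown in 96-well plates and exposed to compound for 48 hours at five concentrations. At the GI50, growth is halved. TGI is the concentration that stops growth completely.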

What was measured:
Experiment in all cases: NCI tumour cell line growth inhibition, 48 h
OVCAR-5 ovarian = test system: OVCAR-5 ovarian
OVCAR-8 ovarian = test system: OVCAR-8 ovarian
LXFL 529 NSCLC = test system: LXFL 529 NSCLC
MOLT-4 leukemia = test system: MOLT-4 leukemia
RPMI-8226 leukemia = test system: RPMI-8226 leukemia
ACHN renal = test system: ACHN renal
MALME-3M melanoma = test system: MALME-3M melanoma
DLD-1 colon = test system: DLD-1 colon
OVCAR-3 ovarian = test system: OVCAR-3 ovarian
COLO 205 colon = test system: COLO 205 colon
SNB-19 CNS = test system: SNB-19 CNS
KM20L2 colon = test system: KM20L2 colon
HCT-15 colon = test system: HCT-15 colon
SF-268 CNS = test system: SF-268 CNS
K-562 leukemia = test system: K-562 leukemia
HOP-92 NSCLC = test system: HOP-92 NSCLC
SK-MEL-5 melanoma = test system: SK-MEL-5 melanoma
786-0 renal = test system: 786-0 renal
HOP-18 NSCLC = test system: HOP-18 NSCLC
HL-60(TB) leukemia = test system: HL-60(TB) leukemia
HOP-62 NSCLC = test system: HOP-62 NSCLC
IGROV1 ovarian = test system: IGROV1 ovarian
SK-MEL-28 melanoma = test system: SK-MEL-28 melanoma
UACC-257 melanoma = test system: UACC-257 melanoma
HCT-116 colon = test system: HCT-116 colon
M19-MEL melanoma = test system: M19-MEL melanoma
M14 melanoma = test system: M14 melanoma
SF-539 CNS = test system: SF-539 CNS
NCI-H522 lung = test system: NCI-H522 lung
OVCAR-4 ovarian = test system: OVCAR-4 ovarian
UACC-62 melanoma = test system: UACC-62 melanoma
SN12C renal = test system: SN12C renal
HCC-2998 colon = test system: HCC-2998 colon
U251 CNS = test system: U251 CNS
NCI-H23 lung = test system: NCI-H23 lung
RXF-631 renal = test system: RXF-631 renal
A549 NSCLC = test system: A549 NSCLC
NCI-H460 lung = test system: NCI-H460 lung
CAKI-1 renal = test system: CAKI-1 renal
DMS 114 small cell lung = test system: DMS 114 small cell lung
LOX IMVI melanoma = test system: LOX IMVI melanoma
SNB-75 CNS = test system: SNB-75 CNS
KM12 colon = test system: KM12 colon
A498 renal = test system: A498 renal
CCRF-CEM leukemia = test system: CCRF-CEM leukemia
TK-10 renal = test system: TK-10 renal
SK-OV-3 ovarian = test system: SK-OV-3 ovarian
EKVX NSCLC = test system: EKVX NSCLC
UO-31 renal = test system: UO-31 renal
SR leukemia = test system: SR leukemia
HT29 colon = test system: HT29 colon
SF-295 CNS = test system: SF-295 CNS
SW-620 colon = test system: SW-620 colon
RXF 393 renal = test system: RXF 393 renal

CCC[CH2][Sn]1([CH2]CCC)[O]C(=O)c2cccc(C)c2[O]1
GI50 (OVCAR-5 ovarian): 1.78 µM | TGI (OVCAR-5 ovarian): 3.16 µM | GI50 (OVCAR-8 ovarian): 1.04 µM | TGI (OVCAR-8 ovarian): 2.38 µM | GI50 (LXFL 529 NSCLC): 0.141 µM | TGI (LXFL 529 NSCLC): 0.44 µM | GI50 (MOLT-4 leukemia): 0.218 µM | TGI (MOLT-4 leukemia): 0.699 µM | GI50 (RPMI-8226 leukemia): 0.25 µM | TGI (RPMI-8226 leukemia): 0.81 µM | GI50 (ACHN renal): 0.551 µM | TGI (ACHN renal): 1.74 µM | GI50 (MALME-3M melanoma): 0.441 µM | TGI (MALME-3M melanoma): 1.55 µM | GI50 (DLD-1 colon): 0.722 µM | TGI (DLD-1 colon): 2.05 µM | GI50 (OVCAR-3 ovarian): 1.11 µM | TGI (OVCAR-3 ovarian): 2.32 µM | GI50 (COLO 205 colon): 0.188 µM | TGI (COLO 205 colon): 1.54 µM | GI50 (SNB-19 CNS): 0.363 µM | TGI (SNB-19 CNS): 1.36 µM | GI50 (KM20L2 colon): 1.35 µM | TGI (KM20L2 colon): 2.64 µM | GI50 (HCT-15 colon): 0.592 µM | TGI (HCT-15 colon): 2.7 µM | GI50 (SF-268 CNS): 0.349 µM | TGI (SF-268 CNS): 1.46 µM | GI50 (K-562 leukemia): 0.259 µM | TGI (K-562 leukemia): 0.897 µM | GI50 (HOP-92 NSCLC): 1.28 µM | TGI (HOP-92 NSCLC): 2.58 µM | GI50 (SK-MEL-5 melanoma): 1.09 µM | TGI (SK-MEL-5 melanoma): 2.33 µM | GI50 (786-0 renal): 1.07 µM | TGI (786-0 renal): 2.26 µM | GI50 (HOP-18 NSCLC): 1.08 µM | TGI (HOP-18 NSCLC): 2.27 µM | GI50 (HL-60(TB) leukemia): 0.297 µM | TGI (HL-60(TB) leukemia): 1.37 µM | GI50 (HOP-62 NSCLC): 2.34 µM | TGI (HOP-62 NSCLC): 4.16 µM | GI50 (IGROV1 ovarian): 1.35 µM | TGI (IGROV1 ovarian): 2.72 µM | GI50 (SK-MEL-28 melanoma): 0.454 µM | TGI (SK-MEL-28 melanoma): 1.51 µM | GI50 (UACC-257 melanoma): 0.626 µM | TGI (UACC-257 melanoma): 1.95 µM | GI50 (HCT-116 colon): 1.25 µM | TGI (HCT-116 colon): 2.5 µM | GI50 (M19-MEL melanoma): 0.477 µM | TGI (M19-MEL melanoma): 1.69 µM | GI50 (M14 melanoma): 0.577 µM | TGI (M14 melanoma): 1.88 µM | GI50 (SF-539 CNS): 0.66 µM | TGI (SF-539 CNS): 1.91 µM | GI50 (NCI-H522 lung): 0.119 µM | TGI (NCI-H522 lung): 0.25 µM | GI50 (OVCAR-4 ovarian): 1.33 µM | TGI (OVCAR-4 ovarian): 2.61 µM | GI50 (UACC-62 melanoma): 0.581 µM | TGI (UACC-62 melanoma): 1.82 µM | GI50 (SN12C renal): 0.598 µM | TGI (SN12C renal): 1.84 µM | GI50 (HCC-2998 colon): 1.27 µM | TGI (HCC-2998 colon): 2.6 µM | GI50 (U251 CNS): 0.421 µM | TGI (U251 CNS): 1.44 µM | GI50 (NCI-H23 lung): 0.649 µM | TGI (NCI-H23 lung): 1.98 µM | GI50 (RXF-631 renal): 0.24 µM | TGI (RXF-631 renal): 0.535 µM | GI50 (A549 NSCLC): 1.46 µM | TGI (A549 NSCLC): 2.79 µM | GI50 (NCI-H460 lung): 2.48 µM | TGI (NCI-H460 lung): 5.75 µM | GI50 (CAKI-1 renal): 0.258 µM | TGI (CAKI-1 renal): 0.852 µM | GI50 (DMS 114 small cell lung): 0.231 µM | TGI (DMS 114 small cell lung): 0.565 µM | GI50 (LOX IMVI melanoma): 0.21 µM | TGI (LOX IMVI melanoma): 0.448 µM | GI50 (SNB-75 CNS): 0.239 µM | TGI (SNB-75 CNS): 0.766 µM | GI50 (KM12 colon): 1.08 µM | TGI (KM12 colon): 2.36 µM | GI50 (A498 renal): 0.317 µM | TGI (A498 renal): 0.867 µM | GI50 (CCRF-CEM leukemia): 0.26 µM | TGI (CCRF-CEM leukemia): 0.924 µM | GI50 (TK-10 renal): 0.356 µM | TGI (TK-10 renal): 0.911 µM | GI50 (SK-OV-3 ovarian): 1.88 µM | TGI (SK-OV-3 ovarian): 3.4 µM | GI50 (EKVX NSCLC): 1.42 µM | TGI (EKVX NSCLC): 2.77 µM | GI50 (UO-31 renal): 1.03 µM | TGI (UO-31 renal): 2.22 µM | GI50 (SR leukemia): 0.401 µM | TGI (SR leukemia): 1.82 µM | GI50 (HT29 colon): 1.5 µM | TGI (HT29 colon): 2.97 µM | GI50 (SF-295 CNS): 1.56 µM | TGI (SF-295 CNS): 2.99 µM | GI50 (SW-620 colon): 0.2 µM | TGI (SW-620 colon): 0.548 µM | GI50 (RXF 393 renal): 0.29 µM | TGI (RXF 393 renal): 1.02 µM
